Measurements published in paper PMC3684613 (PLoS ONE, 2013).
Read-outs that look alike come from different tables or passages of the source.

Experiments:
[1] = tested on: P. falciparum 3D7; parameters: method as in ChEMBL-NTD; conditions: ref ChEMBL-NTD, cited from earlier work
[2] = tested on: P. falciparum 3D7; assay: DAPI stain fluorescent high content imaging assay, P. falciparum 3D7 (confirmatory screen, Avery); conditions: Plasmodium falciparum; for inhibition of growth at 5 µM: 3D7, read-out: percent_inh @ 5 uM; for EC50: 3D7, read-out: EC50_nM; for inhibition of growth at 2 µM: 3D7, read-out: percent_inh @ 2 uM
[3] = values follow the order of the source (GNF; GSK; StJude)
[4] = original screening data, source (GSK, GNF, StJude), several values separated by ';' in order of sources

| EC50 [2] [nM] | SMILES | inhibition of growth at 5 µM [2] [%] | other results |
| --- | --- | --- | --- |
| 4000 | Cc1ccc2c(C)nc(Nc3nc(C)cc(-c4ccccc4)n3)nc2c1 [MMV007041] | – | EC50 [1, 3]: 975 nM; inhibition of growth at 2 µM [2]: 73% |
| 362 | CC(C)(C)c1ccc2c(c1)CN(Cc1ccc(Cl)cc1)CO2 [MMV000442] | 98 | EC50 ([1]; source StJude (SJ ids)): 255 nM |
| 168 | COc1ccc(C=C2SC(=N)N(c3ccccc3OC)C2=O)cc1 [MMV666691] | 97 | EC50 ([1]; source GSK (TCMDC id)): 300 nM |
| 5.3 | COc1ccccc1N=C1C(=O)c2ccccc2C(O)=C1N1CCCCC1 [MMV085203] | 98 | EC50 ([1]; source GNF (GNF-Pf id)): 28 nM |
| 551 | CCCCCCc1cc2cc(-c3nc4ccccc4[nH]3)c(=Nc3ccccc3C)oc2cc1O [MMV666597] | 96 | EC50 [1, 3]: 2120 nM |
| 536 | CC(=O)c1sc(NC(=O)Nc2ccc(C)cc2C)nc1C [MMV665894] | 64 | EC50 [1, 3]: 906 nM |
| 776 | c1ccc(CNc2nc(Nc3ccccc3)nc3ccccc23)cc1 [MMV006169] | – | EC50 [1, 3]: 158 nM; inhibition of growth at 2 µM [2]: 95% |
| 6.71 | Cc1cc(Nc2ccc(C)c(Cl)c2)n2nc(C(F)(F)F)nc2n1 [MMV665874] | 98 | EC50 ([1]; source GSK (TCMDC id)): 15.8 nM |
| 1750 | C=C(C)CCC(C)N1CCC(N2CCC(C(=O)NCCc3ccccc3)CC2)CC1 (stereo not drawn) [MMV666110] | 96 | EC50 ([1]; source StJude): 4260 nM |
| 480 | CCOc1ccc2nc(C)cc(Nc3ccc(Br)cc3)c2c1 [MMV006522] | – | EC50 [1, 3]: 114 nM; inhibition of growth at 2 µM [2]: 96% |
| 632 | COc1ccc(CCNC(=O)c2cc(S(=O)(=O)N3CC(C)CC(C)C3)ccc2Sc2ccc(F)cc2)cc1OC (stereo not drawn) [MMV007557] | 97 | EC50 ([1]; source GNF (GNF-Pf ids)): 1050 nM |
| 676 | O=C(CCc1ccccc1)c1ccccc1OCC(O)CN1CCCCC1 (stereo not drawn) [MMV009015] | 97 | EC50 ([1]; source GNF): 881 nM |

Second part, the compound before the results:

| SMILES | EC50 [2] [nM] | inhibition of growth at 5 µM [2] [%] | other results |
| --- | --- | --- | --- |
| CCN(CC)CCCNc1nc(-c2ccc(Cl)cc2)nc2ccccc12 [MMV665961] | – | 92 | EC50 ([1]; source StJude): 15000 nM |
| Cc1ccc(NC(=O)Nc2cccc(Cl)c2)cc1F [MMV000911] | – | 52 | EC50 [1, 4]: 15000 nM |
| COCCn1c(C)nc2ccccc2c1=O [MMV665904] | – | 59 | EC50 [1, 4]: 1460 nM |
| CCCCOc1ccc(C(=O)Nc2cc(C)on2)cc1 [MMV007906] | – | 73 | EC50 [1, 4]: 3160 nM |
| COc1ccc(-n2ccnc2SCC(=O)Nc2cc(C)ccc2C)c(OC)c1 [MMV019258] | 170 | 95 | EC50 ([1]; source GSK (TCMDC id)): 205 nM |
| CCOC(=O)C1=C(C)N=c2sc(=Cc3cc(Cl)ccc3O)c(=O)n2C1c1ccc(OC)cc1 (stereo not drawn) [MMV665971] | 489 | 97 | EC50 ([1]; source GSK (TCMDC ids)): 746 nM; EC50 ([1]; source StJude (SJ ids)): 15000 nM |
| COc1cc(C(=O)ON=C(N)Cc2cccc3ccccc23)cc(OC)c1OC [MMV666687] | 782 | 99 | EC50 [1, 3]: 280 nM |
| COc1ccc(C2=C(c3ccc(OC)cc3)C3(c4ccccc4)C(=O)C2(c2ccccc2)C2C(=O)N(c4ccc(C)cc4)C(=O)C23)cc1 (stereo not drawn) [MMV666101] | 148 | 98 | EC50 ([1]; source GNF (GNF-Pf id)): 12500 nM |
| Cc1cc(NCCN2CCCCC2)c2ccc3ccccc3c2n1 [MMV006203] | 300 | 99 | EC50 ([1]; source GNF (GNF-Pf id)): 44.1 nM |
| COc1ccc(C(=O)Nc2ccc(Cl)cc2C(=O)Nc2ccncc2)cc1 [MMV665799] | – | 93 | EC50 ([1]; source GSK): 822 nM |
| COc1ccc(C)c2sc(N(Cc3cccnc3)C(=O)c3ccc(C#N)cc3)nc12 [MMV001241] | – | 91 | EC50 ([1]; source StJude (SJ ids)): 15000 nM |
| O=C(Nc1cccc(C(F)(F)F)c1)c1cc(Cl)ccc1O [MMV665807] | – | 93 | EC50 ([1]; source StJude): 973 nM |
| CC(C)(C)c1ccc(C(=O)Nc2c3c(nn2-c2cccc(Cl)c2)CSC3)cc1 [MMV666123] | – | 93 | EC50 ([1]; source StJude (SJ ids)): 15000 nM |
| COCCNCC(O)Cn1c2ccc(Cl)cc2c2cc(Cl)ccc21 (stereo not drawn) [MMV019017] | 1010 | – | EC50 [1, 4]: 52 nM |
| Oc1c(CN2CCN(c3ccccc3F)CC2)cc(Br)c2cccnc12 [MMV000760] | – | 91 | EC50 [1, 4]: 3760 nM |
| CCCCCCc1cc(O)c2c3c(c(=O)oc2c1)CCC(C)C3 (stereo not drawn) [MMV665987] | 534 | 96 | EC50 ([1]; source GNF (GNF-Pf ids)): 364 nM |
| CCc1ccc(Nc2cc(C)c3ccc(O)cc3n2)cc1 [MMV000570] | 194 | 98 | EC50 ([1]; source StJude (SJ id)): 732 nM |
